From paper PMC11110755, “Structure-based virtual screening of unbiased and RNA-focused libraries to identify new ligands for the HCV IRES model system” (RSC Medicinal Chemistry, 2024)
“Also recorded” adds a separate entry of the source. Read-outs that look alike come from different tables or passages of the source. Values belong to the molecule of their own block, whether it stands above or below them.

Experiments:
[1] = tested on: HCV IRES subdomain IIa; parameters: method as in PMID 16279767, PMID 24930829, PMID 27775338; conditions: previously reported, Fig. 1; read-out: EC50 (FRET assay); cited from earlier work
[2] = biological target: HCV IRES subdomain IIa; type: binding, hepatitis C virus; conditions: for Kd: read-out: MST KD; for binding to HCV IRES subdomain IIa (MST-shift), in words: pre-screening 1000 (or 316), 100, 10 and 0.001 μM
Protocol: For the MST assay, the same sequence of the two stranded HCV IRES subdomain IIa as for the FRET assay was used. One strand was 5′-Cy5-labelled and the other strand was unmodified ([…], Cy5-[…], Biomers.net GmbH). All samples containing labelled RNA were treated under light protection. MST experiments were performed on a Monolith NT.115 from NanoTemper Technologies using standard uncoated capillaries. The strands were annealed by heating to 75 °C in MST buffer (10 mM HEPES pH 7.0, 2 mM MgCl2) and cooled down to room temperature for at least 20 min. The 5′-Cy5-labelled HCV IRES domain IIa RNA was diluted to 30 nM in MST buffer and supplemented with compounds 8–25 in appropriate concentrations. Compounds 4 and 5 were used as positive controls. For the initial screening, compounds were added to final concentrations of 1000 (or 316 if limited by solubility), 100, 10 and 0.001 μM (Fig. S5 ^†). If a concentration-dependent shift of thermophoresis was observed, KD-values were determined using concentrations ranging from 1 mM (if permitted by solubility, otherwise starting from 316 or 100 μM) to 0.01 μM in a 3.16-fold (semi-logarithmic) dilution series. For each experiment, one DMSO negative control was carried out. Final DMSO concentration was always 2%.
(§1) Off-target counter screens by MST were performed as described previously.[31,84] Briefly, the 5′-Cy5-labelled Tte preQ1-Riboswitch aptamer domain (Biomers.net GmbH) was heated to 75 °C for 5 min, cooled down to room temperature for at least 20 min and then diluted to 20 nM in MST buffer (50 mM Tris-HCl pH 7.5, 100 mM KCl, 25 mM MgCl2) and supplemented with compounds 4, 5, 8–13, 18, 21, 22 and 26 to final concentrations of 1000, 100, 10 and 0.001 μM. PreQ1 was used as a positive control. The 5′-Cy5-labelled B. angulatum SAM VI-Riboswitch aptamer domain (Eurofins Genomics GmbH) was heated to 75 °C for 5 min, cooled down to room temperature for at least 20 min and then diluted to 20 nM in MST buffer (50 mM Tris-HCl pH 7.5, 100 mM KCl, 25 mM MgCl2) and supplemented with compounds 5, 9 and 28 to final concentrations of 1000, 100, 10 and 0.001 μM. SAM was used as a positive control. For each experiment, one DMSO negative control was carried out. The final DMSO concentration was 2%. All measurements were performed at least as duplicates for pre-screening and triplicates for KD-determination. MST measurements were analyzed from signals after 18 s laser on-time using the MO.Affinity Analysis software (version 2.3) and exported for statistical analysis and plotting in GraphPad Prism (version 8.0.1., GraphPad Software, Boston, Massachusetts USA, https://www.graphpad.com).

[3] = tested on: HCV IRES subdomain IIa; experiment: FRET assay monitoring ligand-induced conformational change of Cy3/Cy5-labelled HCV IRES subdomain IIa; type: biochemical, hepatitis C virus; conditions: for FRET-signal change / conformational change of HCV IRES subdomain IIa, in words: pre-screening 1000, 100, 10 and 0.001 μM
Protocol: For the FRET assay, a two stranded HCV IRES subdomain IIa carrying a 5′-Cy3-label on one and 5′-Cy5-label on the other strand (Cy3-[…], Cy5-[…], Biomers.net GmbH) was used as described previously.[22,53] All samples containing labelled RNA were treated under light protection. FRET experiments were performed on a Tecan Spark 10 M plate reader (excitation/emission: 480/670 nm) using black half area 96 well microplates (Greiner Bio-One), based on a protocol by Zhou et al.[53] The 5′-Cy3- and 5′-Cy5-labelled single strands were annealed by heating to 75 °C in FRET buffer (10 mM HEPES pH 7.0, 2 mM MgCl2) and cooled down to room temperature for at least 20 min. The 5′-Cy3/Cy5-labelled RNA was diluted to 100 nM in FRET buffer and supplemented with compounds 8–28 in appropriate concentrations. Compounds 4 and 5 were used as positive controls. For the initial screening, compounds were added in final concentrations of 1000, 100, 10 and 0.001 μM (Fig. S4 ^†). If a concentration dependent reduction of the FRET signal (Cy5-emission) was observed, EC50-values were determined using ligand concentrations from 1 mM to 100 nM in 3.16-fold (semi-logarithmic) dilution series. For those compounds, the Cy3 emission was measured at 535 nm to confirm a conformational change dependent reduction in the Cy5 emission signal via Cy3 emission increase (Fig. S7 ^†). For each experiment, one DMSO negative control was carried out. The final DMSO concentration was always 2%. Excitation and emission spectra were recorded for the Cy3/Cy5-labelled RNA (100 nM) in FRET buffer to confirm excitation (Cy3) and emission (Cy5) wavelength as well as for each compound (1 μM) in FRET buffer to exclude any interference with the cyanine dyes. All measurements were performed at least as triplicates for screening and EC50-determination.
FRET experiments were analyzed using GraphPad Prism (version 8.0.1., GraphPad Software, Boston, Massachusetts USA, https://www.graphpad.com).

[4] = tested on: Tte preQ1-Riboswitch aptamer domain; experiment: MST off-target counter screen, preQ1-riboswitch aptamer domain; type: binding, Thermoanaerobacter tengcongensis
Protocol: as §1

[5] = tested on: HCV IRES subdomain IIa; parameters: method as in PMID 25349403; conditions: previous study, cited from earlier work
[6] = biological target: SAM VI-Riboswitch aptamer domain; experiment: MST off-target counter screen, SAM VI-riboswitch aptamer domain; type: binding, B. angulatum; conditions: positive control; read-out: KD of positive control binding to SAM-VI-riboswitch (MST)
Protocol: as §1

[7] = 30 nM Cy5-labelled RNA, 10 mM HEPES pH 7.0, 2 mM MgCl2, 2% DMSO, ≥ = no saturation, n.b. no binding observed
[8] = 100 nM Cy3/Cy5-labelled RNA, 10 mM HEPES pH 7.0, 2 mM MgCl2, 2% DMSO, ≥ = lower limit

Structure (SMILES): CN(C)CCCNc1ccc2nc(N)oc2c1 [Compound 6]
EC50 [1]: 25 µM

Structure (SMILES): NC1=Nc2ccccc2C2(CC2)N1 [Compound 7]
EC50 [1]: 100 µM

Kd [2, 7]: ≥ 440 µM
EC50 [3, 8]: 0.413 ± 0.097 mM
Structure (SMILES): CCOc1ccc2c(C)nc(NC(=N)NC)nc2c1 [Compound 8]

Kd [2, 7]: 189 ± 20 µM
EC50 [3, 8]: 0.088 ± 0.012 mM
Structure (SMILES): CCOc1ccc2c(C)nc(NC(=N)N)nc2c1 [Compound 8a]

lipophilic ligand efficiency LLE [2]: 2.9
Kd [2, 7]: 88 ± 2 µM
EC50 [3, 8]: 0.061 ± 0.019 mM
Structure (SMILES): CNC(=N)Nc1nc(C)c2ccc(OC)cc2n1 [Compound 8b]

Kd [2, 7]: 134 ± 43 µM
EC50 [3, 8]: 0.12 ± 0.024 mM
Structure (SMILES): COc1ccc2c(C)nc(NC(=N)N)nc2c1 [Compound 8c]

MST KD [2, 7]: n.b.
EC50 [3, 8]: ≥ 0.5 mM
Structure (SMILES): NC(=O)c1c[nH]c2ccc(NC(=O)CCc3cc4n(n3)CCCNC4)cc12 [Compound 10]
Cy3-emission change in FRET assay, in words ([3]; Cy3 emission at 535 nm): no increase of Cy3-emission
FRET-signal change / conformational change of HCV IRES subdomain IIa, in words [3]: signals in the FRET assay

Structure (SMILES): CC(C)NCC(O)COc1ccc2[nH]cc(CCN)c2c1 (stereo not drawn) [Compound 11]
Kd [2, 7]: ≥ 100 µM
EC50 [3, 8]: ≥ 0.5 mM

Kd [2, 7]: ≥ 50 µM
EC50 [3, 8]: ≥ 0.3 mM
Structure (SMILES): Nc1cc(-c2ccc3[nH]ncc3c2)c2cc[nH]c2n1 [Compound 12]

Kd [2, 7]: ≥ 100 µM
EC50 [3, 8]: ≥ 1 mM
EC50 ([3]; as printed in text in mM): ≥ 1 mM
Structure (SMILES): NC1=NC(c2cn[nH]c2-c2cccc(O)c2)n2c(nc3ccccc32)N1 (stereo not drawn) [Compound 13]

Structure (SMILES): NC1=Nc2nc3ccccc3n2C(C2CC2)N1 (stereo not drawn) [Compound 18]
FRET-signal change / conformational change of HCV IRES subdomain IIa, in words [3]: no large changes in FRET-signals; also recorded: no changes in the FRET-assay

Structure (SMILES): COc1cccc(C2NC(N)=Nc3nc4ccccc4n32)c1 (stereo not drawn) [Compound 21]
FRET-signal change / conformational change of HCV IRES subdomain IIa, in words [3]: no large changes in FRET-signals; also recorded: no changes in the FRET-assay

Structure (SMILES): NC1=NC(c2ccccc2)n2c(nc3ccccc32)N1 (stereo not drawn) [Compound 22]
FRET-signal change / conformational change of HCV IRES subdomain IIa, in words [3]: no large changes in FRET-signals; also recorded: no changes in the FRET-assay

Kd [2, 7]: ≥ 100 µM
binding to HCV IRES subdomain IIa (MST-shift), in words [2]: some weak binding
preQ1-riboswitch binding / selectivity (MST-shift), in words ([4]; 1000, 100, 10 and 0.001 μM): selectivity over the preQ1-riboswitch
EC50 [3, 8]: ≥ 0.5 mM
Structure (SMILES): N=C(N)NC(=O)c1nc(Cl)c(N)nc1N [Compound 26, amiloride, reference compound]

binding to HCV IRES subdomain IIa (MST-shift), in words [2]: no binding
Structure (SMILES): CN(C)C(=O)COC(=O)Cc1ccc(OC(=O)c2ccc(NC(=N)N)cc2)cc1 [Compound 27, Camostat, reference compound]
FRET-signal change / conformational change of HCV IRES subdomain IIa, in words [3]: no binding

Structure (SMILES): Nc1nc2[nH]cnc2c(=O)[nH]1 [G]
HCV IRES subdomain IIa binding, in words [5]: weak binding behavior
EC50 ([5]; read-out: EC50 HCV IRES subdomain IIa binding): 1050 µM

Kd [6]: 0.772 µM
Structure (SMILES): C[S+](CC[C@H](N)C(=O)[O-])C[C@H]1O[C@@H](n2cnc3c(N)ncnc32)[C@H](O)[C@@H]1O (stereo partly drawn) [SAM, reference compound]

Structure (SMILES): N=C(N)NCCC[C@H](N)C(=O)O [arginine]
HCV IRES subdomain IIa binding, in words [5]: no binding

Kd ([4]; positive control, read-out: KD of positive control binding to preQ1-riboswitch (MST)): 0.012 µM
Structure (SMILES): NCc1c[nH]c2nc(N)[nH]c(=O)c12 [preQ1]
